Results published in patent US20230131899A1, “INHIBITORS OF MICROBIALLY INDUCED AMYLOID” (Axial Therapeutics, Inc., priority 2020, published 2023).
Like-named read-outs stand apart in the source and are kept apart here.

Columns and labels:
fecal water content = assay: Fecal water content in MC4100 mice treated with compound vs control chow (FIG. 6); type: in vivo, mouse; conditions: 12-14 weeks of age; vs MC4100-control chow group
[1] = test system: csgA expression in E. coli MC4100; assay: csgA expression relative to housekeeping genes recA and cysG in E. coli MC4100 monocolonized mice (FIGS. 8A-D); type: in vivo
human α-synuclein = target: T1, human α-synuclein (Homo sapiens, UniProt P37840); assay: Cell-free Thioflavin T assay of α-synuclein aggregation (αSyn ThT Assay); type: biochemical; conditions: αSyn 50 μM
T1 construct: the full-length gene for untagged human α-synuclein was inserted; made in house; host or cells: E. coli BL21(DE3), plasmid derived from pT7 or pET11a
Procedure, shortened: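 Inhibition is reported as 100% minus background-corrected ThT signal relative to vehicle wells, taken at 36, 47, 48 or 72 h or the last read. Reactions held 50 μM recombinant α-synuclein, 20-100 μM compound, 20-40 μM ThT and 1% DMSO. Incubation was at 37° C., shaken, with a glass bead.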

number of fecal pellets = assay: Fecal pellet output in MC4100 mice treated with compound vs control chow (FIG. 5); type: in vivo, mouse; conditions: 12-14 weeks of age; compared to MC4100-control chow group; statistical difference was not reached
[2] = test system: time to descend from a pole; assay: Pole descent test in MC4100 mice treated with compound vs control chow (FIG. 7); type: in vivo, mouse; conditions: 18-20 weeks of age; vs MC-4100 control chow group
[3] = test system: CsgA expression in E. coli MC4100; assay: Monocolonized Mouse Model: csgA expression in fecal pellets by qRT-PCR; conditions: 30 mg/kg, day five of treatment, relative to mice treated with vehicle alone (FIGS. 4A-B)
[4] = class symbol, compounds 100 μM, read-out: αSyn ThT Assay % inhibition, activity range
[5] = mean percent inhibition relative to DMSO control, compounds 100 μM, read-out: αSyn ThT Assay % inhibition
[6] = mean % inhibition of αSyn aggregation relative to DMSO control, compounds at 100 μM, read-out: αSyn ThT Assay % Inhibition
[7] = compounds at 100 μM, class symbol, read-out: αSyn ThT Assay % Inhibition (activity range)

Structure (SMILES)	inhibition at 100 µM (human α-synuclein; [4])	inhibition at 100 µM (human α-synuclein; [5])	inhibition at 100 µM (human α-synuclein; [6])	inhibition at 100 µM (human α-synuclein; [7])	other results
O=C(O)[C@@H]1CN(Cc2ccccc2)c2c(-c3cccc(C(F)(F)F)c3)c(Cc3cccc4ccccc34)c(Cl)c(=O)n21 (single isomer, unassigned) [Compound 004a]	31 to 60%	42%	–	–	fecal water content (fecal water content): restored a constipation phenotype; csgA expression relative to housekeeping genes recA and cysG ([1]; 12-14 weeks of age): reduction of csgA expression; csgA expression relative to housekeeping genes recA and cysG ([1]; 14-16 weeks of age): repeated and observed again; number of fecal pellets a mouse produced at 15 min interval (number of fecal pellets): overall increase in number of fecal pellets; time to descend from a pole into a home cage [2]: trend towards improvement of the phenotype
CN1CC(C(=O)O)n2c(c(-c3cccc(C(F)(F)F)c3)c(Cc3cccc4ccccc34)c(NC3CCCC3)c2=O)S1(=O)=O (stereo not drawn) [Compound 070, 7-(cyclopentylamino)-2-methyl-8-(naphthalen-1-ylmethyl)-6-oxo-9-(3-(trifluoromethyl)phenyl)-3,4-dihydro-2H,6H-pyrido[1,2-e][1,2,5]thiadiazine-4-carboxylic acid 1,1-dioxide]	–	–	53%	31 to 60%	csgA expression in E. coli MC4100 monocolonized mice [3]: reduction of csgA expression
Nc1c(Cc2ccc(N)c3ccccc23)c(-c2cccc(C(F)(F)F)c2)c2n(c1=O)C(C(=O)O)CNS2(=O)=O (stereo not drawn) [Compound 041]	–	–	25%	11 to 30%	–
O=C(O)C1CN(Cc2ccccc2)c2c(-c3cccc(C(F)(F)F)c3)c(Cc3cccc4ccccc34)c(Cl)c(=O)n21 (stereo not drawn) [Compound 004, 1-benzyl-6-chloro-7-(naphthalen-1-ylmethyl)-5-oxo-8-(3-(trifluoromethyl)phenyl)-1,2,3,5-tetrahydroimidazo[1,2-a]pyridine-3-carboxylic acid]	31 to 60%	55%	–	–	–
CCCNC(=O)c1c(Cc2cccc3ccccc23)c(-c2cccc(C(F)(F)F)c2)c2n(c1=O)C(C(=O)O)CN(C)S2(=O)=O (stereo not drawn) [Compound 154, 2-methyl-8-(naphthalen-1-ylmethyl)-6-oxo-7-(propylcarbamoyl)-9-(3-(trifluoromethyl)phenyl)-3,4-dihydro-2H,6H-pyrido[1,2-e][1,2,5]thiadiazine-4-carboxylic acid 1,1-dioxide]	> 60%	89%	–	–	–
CN(C)C(=O)c1c(Cc2cccc3ccccc23)c(-c2cccc(C(F)(F)F)c2)c2n(c1=O)C(C(=O)O)CN(C)S2(=O)=O (stereo not drawn) [Compound 173, 7-(dimethylcarbamoyl)-2-methyl-8-(naphthalen-1-ylmethyl)-6-oxo-9-(3-(trifluoromethyl)phenyl)-3,4-dihydro-2H,6H-pyrido[1,2-e] [1,2,5] thiadiazine-4-carboxylic acid 1,1-dioxide]	> 60%	86%	–	–	–
CCCN1CC(C(=O)O)n2c(c(-c3cccc(C(F)(F)F)c3)c(Cc3cccc4ccccc34)c(OCC)c2=O)S1(=O)=O (stereo not drawn) [Compound 143, 7-ethoxy-8-(naphthalen-1-ylmethyl)-6-oxo-2-propyl-9-(3-(trifluoromethyl)phenyl)-3,4-dihydro-2H,6H-pyrido[1,2-e][1,2,5]thiadiazine-4-carboxylic acid 1,1-dioxide]	> 60%	96%	–	–	–
O=C(O)C1CN(C[C@H](O)CO)S(=O)(=O)c2c(-c3cccc(C(F)(F)F)c3)c(Cc3cccc4ccccc34)cc(=O)n21 (stereo partly drawn) [Compound 065a, 2-((S)-2,3-dihydroxypropyl)-8-(naphthalen-1-ylmethyl)-6-oxo-9-(3-(trifluoromethyl)phenyl)-3,4-dihydro-2H,6H-pyrido[1,2-e][1,2,5]thiadiazine-4-carboxylic acid 1,1-dioxide]	–	–	32%	31 to 60%	–
CCCN1CC(C(=O)O)n2c(c(-c3cccc(C(F)(F)F)c3)c(Cc3cccc4ccccc34)c(C(N)=O)c2=O)S1(=O)=O (stereo not drawn) [Compound 172, 7-carbamoyl-8-(naphthalen-1-ylmethyl)-6-oxo-2-propyl-9-(3-(trifluoromethyl)phenyl)-3,4-dihydro-2H,6H-pyrido[1,2-e][1,2,5]thiadiazine-4-carboxylic acid 1,1-dioxide]	> 60%	98%	–	–	–
Cn1c(=O)c2c(nc(CCCCCCN3CC(C(=O)O)n4c(c(-c5cccc(C(F)(F)F)c5)c(Cc5cccc6ccccc56)cc4=O)S3(=O)=O)n2C)n(C)c1=O (stereo not drawn) [Compound 046, 8-(naphthalen-1-ylmethyl)-6-oxo-9-(3-(trifluoromethyl)phenyl)-2-(6-(1,3,7-trimethyl-2,6-dioxo-2,3,6,7-tetrahydro-1H-purin-8-yl)hexyl)-3,4-dihydro-2H,6H-pyrido[1,2-e][1,2,5]thiadiazine-4-carboxylic acid 1,1-dioxide]	–	–	28%	11 to 30%	–
CN1CC(C(=O)O)n2c(c(-c3cccc(C(F)(F)F)c3)c(Cc3cccc4ccccc34)c(C(=O)N3CCOCC3)c2=O)S1(=O)=O (stereo not drawn) [Compound 160, 2-methyl-7-(morpholine-4-carbonyl)-8-(naphthalen-1-ylmethyl)-6-oxo-9-(3-(trifluoromethyl)phenyl)-3,4-dihydro-2H,6H-pyrido[1,2-e][1,2,5] thiadiazine-4-carboxylic acid 1,1-dioxide]	11 to 30%	17%	–	–	–
Cn1c(=O)c2c(ncn2CCCCCCCN2CC(C(=O)O)n3c(c(-c4cccc(C(F)(F)F)c4)c(Cc4cccc5ccccc45)cc3=O)S2(=O)=O)n(C)c1=O (stereo not drawn) [Compound 036]	–	–	16%	11 to 30%	–
CCCN1CC(C(=O)O)n2c(c(-c3cccc(C(F)(F)F)c3)c(Cc3cccc4ccccc34)cc2=O)S1(=O)=O (single isomer, unassigned) [Compound 016b, 8-(naphthalen-1-ylmethyl)-6-oxo-2-propyl-9-(3-(trifluoromethyl)phenyl)-3,4-dihydro-2H,6H-pyrido[1,2-e][1,2,5]thiadiazine-4-carboxylic acid 1,1-dioxide]	–	–	95%	> 60%	–
O=C(O)C1CN(CC2CCCCC2)c2c(-c3cccc(C(F)(F)F)c3)c(Cc3cccc4ccccc34)c(Cl)c(=O)n21 (stereo not drawn) [Compound 180, 6-chloro-1-(cyclohexylmethyl)-7-(naphthalen-1-ylmethyl)-5-oxo-8-(3-(trifluoromethyl)phenyl)-1,2,3,5-tetrahydroimidazo[1,2-a]pyridine-3-carboxylic acid]	> 60%	63%	–	–	–
O=C(O)c1c(-c2ccccc2)sc2c(-c3cccc(C(F)(F)F)c3)c(Cc3cccc4ccccc34)cc(=O)n12 [Compound 051, 7-(naphthalen-1-ylmethyl)-5-oxo-2-phenyl-8-(3-(trifluoromethyl)phenyl)-5H-thiazolo[3,2-a]pyridine-3-carboxylic acid]	–	–	47%	31 to 60%	–
